In PubChem BioAssay AID1963843 (Molecular Pharmacology Branch, DTP, NCI, 2024):

Tested on: 616215-338-R-J1-PDC complex spheroid viability
Experiment: Anticancer human tumor 616215-338-R-J1-PDC patient-derived colon adenocarcinoma cell line growth inhibition [POLQ]
Details: for IC50: curve of first compound; for viability, T/C: stronger effect = lower value
Protocol: Multicellular complex tumor spheroid response to Polymerase (POL) inhibitors (novobiocin, ART-558, RP6685) in combination with a variety of drugs and investigational agents in selected tumor cell lines
The POL inhibitors (novobiocin, ART-558, and RP6685) were evaluated both individually and in combination with standard of care and investigational anticancer small molecules within a complex spheroid model of solid tumors. . Complex spheroids include a stromal component modeled by human endothelial cells (HUVEC) and fibroblasts modeled by human mesenchymal stem cells (MSCs). The concentration ranges selected for each drug and investigational agent were based upon clinically achievable concentrations if the clinical Cmax of the agent was known.
Compounds. The drugs and investigational agents: novobiocin (NSC847541), ART-558 (NSC835418), RP-6685 (NSC848927), peposertib (NSC802822), ceralasertib (NSC780249), elimusertib (NSC800525), camonsertib (NSC841442), AZD-1390 (NSC803789), olaparib (NSC753686), talazoparib (NSC767125), rucaparib (NSC756644), sotorasib (NSC818433), MRTX-1133 (NSC836407), SN-38 (NSC673596), topotecan (NSC609699), epotoside (NSC141540), doxorubicin (NSC123127), gemcitabine (NSC613327), 5-fluorouracil (NSC19893), paclitaxel (NSC125973), vemurafenib (NSC761431), MSA-2 (NSC828583), SN-011 (NSC837082), adavosertib (NSC754352), prexasertib (NSC758257), carboplatin (NSC241240) and oxaliplatin (NSC266046), were obtained from the National Cancer Institute (NCI) Developmental Therapeutics Program Chemical Repository (21). The FDA-approved anticancer drug set is available from the Developmental Therapeutics Program at https://dtp.cancer.gov/organization/dscb/obtaining/. […] The stock solutions were prepared in dimethyl sulfoxide (DMSO, Sigma-Aldrich, St. Louis, MO, cat. D2650), except for the platinum compounds which were prepared in saline (Quality Biological, Gaithersburg, MD, cat. 114-055-101), at 800-fold the tested concentration and stored at -70 degrees C prior to their use. All drugs and investigational agents were tested over a range starting from a high concentration at or near the clinical Cmax and decreasing in half-log increments. If the clinical Cmax for an agent had not been determined, the highest concentration tested was 10 microM, except for SN-38, which was tested at a high concentration of 1 microM.
Cell Culture. All cells were maintained in an incubator at 37 degrees C and 5% CO2 with 95% humidity. The PDC lines were cultured according to standard operating procedures established by the NCI PDMR (https://pdmr.cancer.gov). Table 3 of the manuscript, lists the cell lines along with the number of the three cell types plated to form the mct-spheroids and media for tumor cell growth. After thawing, all PDC lines, except 997537-175-T-J1-PDC and 415267-285-R-J2-PDC, were cultured in Matrigel-coated flasks prepared with a working solution of 1X Ham's F-12 nutrient mix, without supplementation (Thermo Fisher Scientific, cat. 11765054), 100 U/mL penicillin-streptomycin (Thermo Fisher Scientific, cat. 15140122), and 2.5% Matrigel (Corning Inc., Corning, NY, cat. 354248) for the first three passages. The two PDC lines 997537-175-T-J1-PDC and 415267-285-R-J2-PDC were cultured on uncoated flasks. The 857933-349-R-J2-PDC line was cultured in 6C/Colon 1B media containing advanced DMEM/F-12 (Thermo Fisher Scientific, cat. 12634028), 10 mM HEPES (Thermo Fisher Scientific, cat. 15630080), 1X GlutaMAX supplement (Thermo Fisher Scientific, cat. 35050061), 0.1 mg/mL primocin (InvivoGen, San Diego, CA, cat. ant-pm-2), 10% defined fetal bovine serum, heat inactivated (HyClone Laboratories Inc., Logan, UT, cat. SH30070.03HI), 50% L-WRN conditioned media (ATCC, cat. CRL-3276), 1.25 mM N-Acetyl-L-cysteine (Sigma-Aldrich, cat. A9165), 10 mM nicotinamide (Sigma-Aldrich, cat. N0636), 1X B-27 supplement (Thermo Fisher Scientific, cat. 17504044), 1X N-2 supplement (Thermo Fisher Scientific, cat. […]

[1] = second compound 0.0316 µM, first compound 0.0316 µM
[2] = second compound 0.0316 µM, first compound 0.1 µM
[3] = second compound 0.0316 µM, first compound 0.316 µM
[4] = second compound 0.0316 µM, first compound 1 µM
[5] = second compound 0.0316 µM, first compound 3.16 µM
[6] = second compound 0.0316 µM, first compound 10 µM
[7] = second compound 0.1 µM, first compound 0.0316 µM
[8] = second compound 0.1 µM, first compound 0.1 µM
[9] = second compound 0.1 µM, first compound 0.316 µM
[10] = second compound 0.1 µM, first compound 1 µM
[11] = second compound 0.1 µM, first compound 3.16 µM
[12] = second compound 0.1 µM, first compound 10 µM
[13] = second compound 0.316 µM, first compound 0.0316 µM
[14] = second compound 0.316 µM, first compound 0.1 µM
[15] = second compound 0.316 µM, first compound 0.316 µM
[16] = second compound 0.316 µM, first compound 1 µM
[17] = second compound 0.316 µM, first compound 3.16 µM
[18] = second compound 0.316 µM, first compound 10 µM
[19] = second compound 1 µM, first compound 0.0316 µM
[20] = second compound 1 µM, first compound 0.1 µM
[21] = second compound 1 µM, first compound 0.316 µM
[22] = second compound 1 µM, first compound 1 µM
[23] = second compound 1 µM, first compound 3.16 µM
[24] = second compound 1 µM, first compound 10 µM
[25] = second compound 3.16 µM, first compound 0.0316 µM
[26] = second compound 3.16 µM, first compound 0.1 µM
[27] = second compound 3.16 µM, first compound 0.316 µM
[28] = second compound 3.16 µM, first compound 1 µM
[29] = second compound 3.16 µM, first compound 3.16 µM
[30] = second compound 3.16 µM, first compound 10 µM
[31] = second compound 10 µM, first compound 0.0316 µM
[32] = second compound 10 µM, first compound 0.1 µM
[33] = second compound 10 µM, first compound 0.316 µM
[34] = second compound 10 µM, first compound 1 µM
[35] = second compound 10 µM, first compound 3.16 µM
[36] = second compound 10 µM, first compound 10 µM
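Further: spheroids exposed to compounds for one week before readout.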
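Wherever viability, T/C is given: percent viability relative to DMSO vehicle wells taken as 100%.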

SMILES: CC1COCCN1c1cc(-c2ccnn2C)c2ccnc(-c3ccn[nH]3)c2n1 (centres undefined) + Nc1ccc(C#CCN(C(=O)Cc2ncc(C(F)(F)F)cc2C(F)(F)F)c2ccc(F)cc2)nn1
- IC50 (second compound 0.0316 µM): 155 nM
- IC50 (second compound 0.1 µM): 165 nM
- IC50 (second compound 0.316 µM): 190 nM
- IC50 (second compound 1 µM): 115 nM
- IC50 (second compound 3.16 µM): 192 nM
- IC50 (second compound 10 µM): 154 nM
- viability, T/C [1]: 86%
- viability, T/C [2]: 56.8%
- viability, T/C [3]: 38.9%
- viability, T/C [4]: 31.7%
- viability, T/C [5]: 25.9%
- viability, T/C [6]: 27.4%
- viability, T/C [7]: 93.8%
- viability, T/C [8]: 60.6%
- viability, T/C [9]: 34.7%
- viability, T/C [10]: 29.8%
- viability, T/C [11]: 24.5%
- viability, T/C [12]: 19.4%
- viability, T/C [13]: 102%
- viability, T/C [14]: 67.4%
- viability, T/C [15]: 35.2%
- viability, T/C [16]: 26.8%
- viability, T/C [17]: 22.4%
- viability, T/C [18]: 18.9%
- viability, T/C [19]: 101%
- viability, T/C [20]: 52.9%
- viability, T/C [21]: 29%
- viability, T/C [22]: 26.8%
- viability, T/C [23]: 21.6%
- viability, T/C [24]: 23.1%
- viability, T/C [25]: 96.7%
- viability, T/C [26]: 59.5%
- viability, T/C [27]: 45.8%
- viability, T/C [28]: 24.8%
- viability, T/C [29]: 23.6%
- viability, T/C [30]: 18.7%
- viability, T/C [31]: 104%
- viability, T/C [32]: 56.4%
- viability, T/C [33]: 40.1%
- viability, T/C [34]: 25.1%
- viability, T/C [35]: 20.1%
- viability, T/C [36]: 22.2%

SMILES: COc1cc(C2c3cc4c(cc3C(OC3OC5COC(C)OC5C(O)C3O)C3COC(=O)C23)OCO4)cc(OC)c1O (centres undefined) + Nc1ccc(C#CCN(C(=O)Cc2ncc(C(F)(F)F)cc2C(F)(F)F)c2ccc(F)cc2)nn1
- IC50 (second compound 0.0316 µM): 327 nM
- IC50 (second compound 0.1 µM): 812 nM
- IC50 (second compound 0.316 µM): 732 nM
- IC50 (second compound 1 µM): 489 nM
- IC50 (second compound 3.16 µM): 314 nM
- IC50 (second compound 10 µM): 268 nM
- viability, T/C [1]: 106%
- viability, T/C [2]: 83.9%
- viability, T/C [3]: 46.2%
- viability, T/C [4]: 45.8%
- viability, T/C [5]: 41.9%
- viability, T/C [6]: 24.9%
- viability, T/C [7]: 107%
- viability, T/C [8]: 92.4%
- viability, T/C [9]: 57.6%
- viability, T/C [10]: 51.3%
- viability, T/C [11]: 36.4%
- viability, T/C [12]: 27.7%
- viability, T/C [13]: 108%
- viability, T/C [14]: 87.8%
- viability, T/C [15]: 65.4%
- viability, T/C [16]: 42.3%
- viability, T/C [17]: 35.9%
- viability, T/C [18]: 26.4%
- viability, T/C [19]: 98.4%
- viability, T/C [20]: 86.3%
- viability, T/C [21]: 56.5%
- viability, T/C [22]: 37%
- viability, T/C [23]: 36%
- viability, T/C [24]: 24.8%
- viability, T/C [25]: 94.7%
- viability, T/C [26]: 67.5%
- viability, T/C [27]: 48.6%
- viability, T/C [28]: 37.9%
- viability, T/C [29]: 38.3%
- viability, T/C [30]: 24.4%
- viability, T/C [31]: 83.4%
- viability, T/C [32]: 64%
- viability, T/C [33]: 49.8%
- viability, T/C [34]: 34.3%
- viability, T/C [35]: 32.3%
- viability, T/C [36]: 30.9%
